From US11123398B2, “Chemotherapeutic combinations of cationic antimicrobial peptides and chemotherapeutics” (LYTIX BIOPHARMA AS, priority 2014, dated 2021)
Non-standard residues stand in square brackets, D forms with d. Residues, ends and D or L forms follow the SMILES beside them. Dip = N[C@H](C(=O)O)C(c1ccccc1)c1ccccc1

Assays:
A375 cells [1] = test: Mitotracker confocal imaging (mitochondrial membrane potential); assay type: cell-based, human; details: short time after peptide treatment; data not shown
Procedure: Cells were seeded as for live cell imaging, and treated with Mitotracker CMH2XROS (Invitrogen) at […] for 15 minutes prior to peptide treatment. Cells were treated with 17 μM LTX-315, with negative control serum-free RPMI only. After 60 min of incubation, cells were analyzed using a Zeiss microscope. All confocal imaging experiments were subsequently conducted at least twice with similar results.

[2] = system: murine CT26WT colon carcinoma; test: Murine CT26WT colon carcinoma tumours in mice, treatment regimes; assay type: in vivo; details: for Mean tumour size at day 1: prior to start of treatment
Procedure: The administration takes place by intra-tumoural injection of LTX-315 dissolved in sterile saline (0.9% NaCl in sterile water).
The mice were divided into five groups, 8 mice in each group. When the tumours reached the desired size of 20 mm^2 the treatment by intra tumoural injection was initiated. Group one was treated solely on day 1, Group two on day 1 and 2, Group three on day 1 and 3 and Group four on day 1, 2 and 3. All daily treatments were one single injection of 1.0 mg LTX-315 dissolved in 50 μl (20 mg/ml). Group five was treated with the 50 μl of vehicle for LTX-315 (Group 5).
Weighing and physical examination were used as health controls.

A375 cells [3] = test: Confocal microscopy with fluorescence-labeled peptide (internalization); assay type: cell-based, human; details: 3 μM and 1.5 μM, 30-60 min
Procedure: Subconfluential A375 cells were seeded at 8,000 cells/well as above, and transfected on the second day using the Lipofectamine LTX with Plus transfection reagents (Invitrogen) following the manufacturer's protocol. The mitochondria were labeled using the pDsRed2-Mito, and the nucleus was labeled using the GFP-Histon2B plasmid (Imaging Platform, University of Tromsø). A day after transfection, cells were washed twice with serum-free RPMI, and treated at different concentration and incubation periods with LTX-315 Pacific Blue or LTX-328 Pacific Blue. […] Control cells were treated with unlabeled LTX-315 and also with serum-free RPMI only. After incubation, cells were fixed with 4% paraformaldehyde in PBS, and the wells were covered with Prolong Gold antifade (Invitrogen). Cells were further analyzed by use of a Leica TCS SP5 confocal microscope, with a […] objective. Pacific Blue, GFP and Ds Red were excited using UV, with 488 and 561 lasers, and fluorescence channels were sequentially detected using the following band passes: UV: 420-480 nm (with attenuation), 488: 501-550 nm and 561: 576-676 nm.

[4] = Group 1: 1 mg intratumoural on day 1
[5] = Group 2: 1 mg intratumoural on days 1, 2
[6] = Group 3: 1 mg intratumoural on days 1, 3
[7] = Group 4: 1 mg days 1, 2, 3, n=8
[8] = Group 4: 1 mg intratumoural on days 1, 2, 3
[9] = of the 32 treated animals, all four regimes

NCCCC[C@H](NC(=O)[C@@H](NC(=O)[C@H](Cc1c[nH]c2ccccc12)NC(=O)[C@H](CCCCN)NC(=O)[C@H](CCCCN)NC(=O)[C@H](Cc1c[nH]c2ccccc12)NC(=O)[C@H](Cc1c[nH]c2ccccc12)NC(=O)[C@H](CCCCN)NC(=O)[C@@H](N)CCCCN)C(c1ccccc1)c1ccccc1)C(N)=O [LTX-315, K-K-W-W-K-K-W-Dip-K-NH2] (H-KKWWKKW[Dip]K-NH2)
Mitochondrial membrane potential (Mitotracker signal) (A375 cells [1]): loss of mitochondrial signal | Animals showing complete tumour response ([2]; Group 1: 1 mg day 1): four out of eight | Free of Tumour at end of Follow-Up ([2]; Group 1: 1 mg day 1, n=8): 50% (4/8) | Relapse of Tumour ([2]; Group 1: 1 mg day 1, n=8): 20% (1/5) | Tumour Response: complete response ([2]; Group 1: 1 mg day 1, n=8): 62.5% | Tumour Response: no response ([2]; Group 1: 1 mg day 1, n=8): 0% | Tumour Response: partial response ([2]; Group 1: 1 mg day 1, n=8): 27.5% | Mean tumour size on day 6 [2, 4]: 4.343 ± 2.295 mm^2 | Mean tumour size on day 10 [2, 4]: 7.171 ± 4.035 mm^2 | Mean tumour size on day 17 [2, 4]: 3.712 ± 3.712 mm^2 | Mean tumour size at day 1 [2, 4]: 22.69 ± 0.4070 mm^2 | Animals showing complete tumour response ([2]; Group 2: 1 mg days 1, 2): two out of eight | Free of Tumour at end of Follow-Up ([2]; Group 2: 1 mg days 1, 2, n=8): 25% (2/8) | Relapse of Tumour ([2]; Group 2: 1 mg days 1, 2, n=8): 71% (5/7) | Tumour Response: complete response ([2]; Group 2: 1 mg days 1, 2, n=8): 87.5% | Tumour Response: no response ([2]; Group 2: 1 mg days 1, 2, n=8): 0% | Tumour Response: partial response ([2]; Group 2: 1 mg days 1, 2, n=8): 12.5% | Mean tumour size on day 6 [2, 5]: 1.458 ± 1.458 mm^2 | Mean tumour size on day 10 [2, 5]: 5.058 ± 4.014 mm^2 | Mean tumour size on day 17 [2, 5]: 6.644 ± 3.430 mm^2 | Mean tumour size at day 1 [2, 5]: 22.90 ± 1.155 mm^2 | Animals showing complete tumour response ([2]; Group 3: 1 mg days 1, 3): five out of eight | Free of Tumour at end of Follow-Up ([2]; Group 3: 1 mg days 1, 3, n=8): 62.5% (5/8) | Relapse of Tumour ([2]; Group 3: 1 mg days 1, 3, n=8): 29% (2/7) | Tumour Response: complete response ([2]; Group 3: 1 mg days 1, 3, n=8): 87.5% | Tumour Response: no response ([2]; Group 3: 1 mg days 1, 3, n=8): 12.5% | Tumour Response: partial response ([2]; Group 3: 1 mg days 1, 3, n=8): 0% | Mean tumour size on day 6 [2, 6]: 2.983 ± 2.983 mm^2 | Mean tumour size on day 10 [2, 6]: 10.85 ± 7.553 mm^2 | Mean tumour size on day 17 [2, 6]: 0.00 ± 0.00 mm^2 | Mean tumour size at day 1 [2, 6]: 21.43 ± 1.141 mm^2 | Animals showing complete tumour response ([2]; Group 4: 1 mg days 1, 2, 3): five out of eight | Free of Tumour at end of Follow-Up [2, 7]: 62.5% (5/8) | Relapse of Tumour [2, 7]: 37.5% | Tumour Response: complete response [2, 7]: 100% (8/8) | Tumour Response: no response [2, 7]: 0% | Tumour Response: partial response [2, 7]: 0% | Mean tumour size on day 6 [2, 8]: 0.00 ± 0.00 mm^2 | Mean tumour size on day 10 [2, 8]: 0.00 ± 0.00 mm^2 | Mean tumour size on day 17 [2, 8]: 1.308 ± 1.308 mm^2 | Mean tumour size at day 1 [2, 8]: 24.09 ± 1.653 mm^2 | Anti-tumour effect ([2]; all four treatment regimes): strong anti tumour effect | Toxic or other adverse effects ([2]; all treated groups, intratumoural 1 mg): No toxic or other adverse effects besides local necrotic tissue and wound formation were observed | Animals without response to the treatment ([2]; of the 32 treated animals (in Group 3)): one | Animals with a complete tumour response [2, 9]: 27 | Animals with a partial response [2, 9]: four | Internalization of Pacific Blue-labeled peptide (A375 cells [3]): rapidly penetrated the plasma membrane
